These results are taken from patent US11046649B2, “Compounds useful as inhibitors of indoleamine 2,3-dioxygenase and/or tryptophan dioxygenase” (Board of Regents, The University of Texas System, priority 2018, dated 2021).

T1 sequence (P14902 whole entry): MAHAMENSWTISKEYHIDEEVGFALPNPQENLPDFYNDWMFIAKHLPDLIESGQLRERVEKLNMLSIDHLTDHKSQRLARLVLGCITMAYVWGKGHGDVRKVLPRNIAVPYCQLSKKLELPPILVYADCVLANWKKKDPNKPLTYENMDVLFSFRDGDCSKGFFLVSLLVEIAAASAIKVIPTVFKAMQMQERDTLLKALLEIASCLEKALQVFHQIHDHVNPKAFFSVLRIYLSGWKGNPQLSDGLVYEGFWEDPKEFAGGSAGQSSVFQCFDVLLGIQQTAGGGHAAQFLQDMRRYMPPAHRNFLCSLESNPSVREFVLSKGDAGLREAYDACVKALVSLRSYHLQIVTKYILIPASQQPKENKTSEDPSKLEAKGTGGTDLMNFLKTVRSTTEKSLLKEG

This assay has as its target T1, IDO1 (Homo sapiens, UniProt P14902).
T1 construct: endogenous in cells; host or cells: HeLa cells (ATCC), IDO1 induced with 10 ng/mL IFNgamma
As to the kind of experiment: IDO1 cell-based assay. The following applies: HeLa cells, 10 ng/mL IFNgamma, 24 hours with test compound; N-Formyl Kynurenine and L-tryptophan quantified by RFMS.
Regarding `Cc1cnc(NC(=O)C(C)[C@H]2[C@@H]3C[C@@H](n4cnc5cc(F)c(F)cc54)C[C@@H]32)cn1` (stereo partly drawn) [Example 53, 2-((1R,3s,5S,6r)-3-(5,6-difluoro-1H-benzo[d]-imidazol-1-yl)bicyclo-[3.1.0]hexan-6-yl)-N-(5-methylpyrazin-2-yl)-propanamide], it took 10.5 nM to reach half-maximal inhibition (IC50).
On to `CC(C(=O)NC12CC(C(F)(F)F)(C1)C2)[C@H]1[C@@H]2C[C@@H](n3cnc4cc(F)c(F)cc43)C[C@@H]21` (stereo partly drawn) [Example 24, 2-((1R,3s,5S,6r)-3-(5,6-difluoro-1H-benzo[d]-imidazol-1-yl)bicyclo-[3.1.0]hexan-6-yl)-N-(3-(trifluoromethyl)bicyclo [1.1.1]pentan-1-yl)-propanamide], for which the IC50 was 117 nM.
With `Cc1nnc(-c2ccc(NC(=O)[C@@H](C)[C@H]3[C@@H]4C[C@@H](n5cnc6cc(F)c(F)cc65)C[C@@H]43)cc2)o1` [Example 81, (S)-2-((1R,3R,5S,6r)-3-(5,6-difluoro-1H-benzo[d]-imidazol-1-yl)-bicyclo[3.1.0]hexan-6-yl)-N-(4-(5-methyl-1,3,4-oxadiazol-2-yl)phenyl)-propanamide], the IC50 turned out to be 710 nM.
Under `Cc1ccc(NC(=O)C(C)[C@H]2[C@@H]3C[C@@H](n4cnc5cc(F)c(F)cc54)C[C@@H]32)nc1` (stereo partly drawn) [Example 29, 2-((1R,3s,5S,6r)-3-(5,6-difluoro-1H-benzo[d]-imidazol-1-yl)bicyclo-[3.1.0]hexan-6-yl)-N-(5-methylpyridin-2-yl)-propanamide] stands 10.9 nM.
Next, `C[C@H](C(=O)Nc1ccc(-c2cnc[nH]2)cc1)[C@H]1[C@@H]2C[C@@H](n3cnc4cc(F)c(F)cc43)C[C@@H]21` [Example 90, (S)-N-(4-(1H-imidazol-5-yl)phenyl)-2-((1R,3R,5S,6r)-3-(5,6-difluoro-1H-bcnzo[d]-imidazol-1-yl)bicyclo-[3.1.0]hexan-6-yl)-propanamide]: 550 nM; `CC(C(=O)Nc1ccc(Cl)cn1)[C@H]1[C@@H]2C[C@@H](n3cnc4cc(F)c(F)cc43)C[C@@H]21` (stereo partly drawn) [Example 22, N-(5-chloropyridin-2-yl)-2-((1R,3s,5S,6r)-3-(5,6-difluoro-1H-benzo[d]-imidazol-1-yl)bicyclo-[3.1.0]hexan-6-yl)-propanamide]: 2.5 nM; `CC(C(=O)NC12CC(C(C)O)(C1)C2)[C@H]1[C@@H]2C[C@@H](n3cnc4cc(F)c(F)cc43)C[C@@H]21` (stereo partly drawn) [Example 13, 2-((1R,3s,5S,6r)-3-(5,6-difluoro-1H-benzo[d]imidazol-1-yl)bicyclo[3.1.0]hexan-6-yl)-N-(3-(1-hydroxyethyl)bicyclo[1.1.1]pentan-1-yl)propanamide]: 626 nM.
Under `C[C@H](C(=O)Nc1ccc(-c2ccc(F)cc2)cc1)[C@H]1[C@@H]2C[C@@H](n3cnc4cc(F)c(F)cc43)C[C@@H]21` [Example 93, (S)-2-((1R,3R,5S,6r)-3-(5,6-difluoro-1H-benzo[d]-imidazol-1-yl)bicyclo-[3.1.0]hexan-6-yl)-N-(4′-fluoro-[1,1′-biphenyl]-4-yl)propanamide] stands 329 nM; under `O=C(O)C(C1CC1)[C@H]1[C@@H]2C[C@@H](Oc3ccnc4ccc(F)cc34)C[C@@H]21` (stereo partly drawn) [Example 127, 2-cyclopropyl-2-((1R,3s,5S,6r)-3-((6-fluoroquinolin-4-yl)oxy)-bicyclo[3.1.0]hexan-6-yl)acetic acid], 6310 nM.
In turn, `Cc1nc(NC(=O)C(C)[C@H]2[C@@H]3C[C@@H](n4cnc5cc(F)c(F)cc54)C[C@@H]32)ccc1C#N` (stereo partly drawn) [Example 46, (R)-N-(5-cyano-6-methyl-pyridin-2-yl)-2-((1R,3s,5S,6r)-3-(5,6-difluoro-1H-benzo[d]-imidazol-1-yl)bicyclo-[3.1.0]hexan-6-yl)-propanamide] returned an IC50 of 41.3 nM.
Under `CCC(c1nc2cc(C(F)(F)F)ccc2[nH]1)[C@H]1[C@@H]2C[C@@H](Oc3ccnc4ccc(F)cc34)C[C@@H]21` (stereo partly drawn) [Example 12] stands 0.85 nM; under `C[C@H](C(=O)Nc1ccc(-c2cnn(CC(=O)O)c2)cc1)[C@H]1[C@@H]2C[C@@H](n3cnc4cc(F)c(F)cc43)C[C@@H]21` [Example 69, 2-(4-(4-((S)-2-((1R,3R,5S,6r)-3-(5,6-difluoro-1H-benzo[d]-imidazol-1-yl)bicyclo-[3.1.0]hexan-6-yl)-propanamido)phenyl)-1H-pyrazol-1-yl)acetic acid], 5550 nM; under `CC(C(=O)Nc1ccc(C2CC2)nc1)[C@H]1[C@@H]2C[C@@H](Oc3ccnc4ccc(F)cc34)C[C@@H]21` (stereo partly drawn) [Example 63, N-(6-cyclopropylpyridin-3-yl)-2-((1R,3s,5S,6r)-3-((6-fluoroquinolin-4-yl)oxy)-bicyclo[3.1.0]hexan-6-yl)propanamide], 1.4 nM.
Next, `COCC(=O)NC12CC(NC(=O)C(C)[C@H]3[C@@H]4C[C@@H](Oc5ccnc6ccc(F)cc56)C[C@@H]43)(C1)C2` (stereo partly drawn) [Example 132, 2-((1R,3s,5S,6r)-3-((6-fluoroquinolin-4-yl)oxy)-bicyclo[3.1.0]hexan-6-yl)-N-(3-(2-methoxyacetamido)-bicyclo[1.1.1]pentan-1-yl)-propanamide]: 511 nM; `CC(C)n1cc(-c2ccc(NC(=O)[C@@H](C)[C@H]3[C@@H]4C[C@@H](n5cnc6cc(F)c(F)cc65)C[C@@H]43)cc2)cn1` [Example 91, (S)-2-((1R,3R,5S,6r)-3-(5,6-difluoro-1H-benzo[d]-imidazol-1-yl)bicyclo-[3.1.0]hexan-6-yl)-N-(4-(1-isopropyl-1H-pyrazol-4-yl)phenyl)propanamide]: 504 nM.
For `O=C(N[C@H](C1CC1)[C@H]1[C@@H]2C[C@@H](Oc3ccnc4ccc(F)cc34)C[C@@H]21)c1ccc(Cl)cc1` [Example 38, 4-chloro-N-((R)-cyclo-propyl((1R,3s,5S,6r)-3-((6-fluoroquinolin-4-yl)oxy)-bicyclo[3.1.0]hexan-6-yl)-methyl)benzamide], the IC50 is 1.37 nM.
Under `CC(C(=O)NC1CCC(F)(F)CC1)[C@H]1[C@@H]2C[C@@H](n3cnc4cc(F)c(F)cc43)C[C@@H]21` (stereo partly drawn) [Example 43, 2-((1R,3s,5S,6r)-3-(5,6-difluoro-1H-benzo[d]-imidazol-1-yl)bicyclo-[3.1.0]hexan-6-yl)-N-(4,4-difluorocyclohexyl)-propanamide] stands 192 nM; under `CC(C(=O)Nc1cnc(Br)cn1)[C@H]1[C@@H]2C[C@@H](n3cnc4cc(F)c(F)cc43)C[C@@H]21` (stereo partly drawn) [Example 57, N-(5-bromopyrazin-2-yl)-2-((1R,3s,5S,6r)-3-(5,6-difluoro-1H-benzo[d]-imidazol-1-yl)bicyclo-[3.1.0]hexan-6-yl)-propanamide], 2.4 nM.
Under “2-((1R,3s,5S,6r)-3-((6- fluoroquinolin-4-yl)oxy)- bicyclo[3.1.0]hexan-6-yl)- N-(1-(trifluoromethyl)-1H- pyrazol-3-yl)propanamide [Example 102]” stands 3.7 nM; under `CC(C(=O)Nc1ccc(C(F)(F)F)cn1)[C@H]1[C@@H]2C[C@@H](Oc3ccnc4ccc(F)cc34)C[C@@H]21` (stereo partly drawn) [Example 59, 2-((1R,3s,5S,6r)-3-((6-fluoroquinolin-4-yl)oxy)-bicyclo[3.1.0]hexan-6-yl)-N-(5-(trifluoromethyl)-pyridin-2-yl)propanamide], 3.7 nM.
Next, `Cc1cc2ccc(NC(=O)C(C)[C@H]3[C@@H]4C[C@@H](n5cnc6cc(F)c(F)cc65)C[C@@H]43)cc2[nH]1` (stereo partly drawn) [Example 52, 2-((1R,3s,5S,6r)-3-(5,6-difluoro-1H-benzo[d]-imidazol-1-yl)bicyclo-[3.1.0]hexan-6-yl)-N-(2-methyl-1H-indol-6-yl)-propanamide]: 23.9 nM; `CC(C(=O)NC1CC(F)(F)C1)[C@H]1[C@@H]2C[C@@H](n3cnc4cc(F)c(F)cc43)C[C@@H]21` (stereo partly drawn) [Example 30, 2-((1R,3s,5S,6r)-3-(5,6-difluoro-1H-benzo[d]-imidazol-1-yl)bicyclo-[3.1.0]hexan-6-yl)-N-(3,3-difluorocyclobutyl)-propanamide]: 1640 nM.
`CC(C(=O)NC12CC(CO)(C1)C2)[C@H]1[C@@H]2C[C@@H](Oc3ccnc4ccc(F)cc34)C[C@@H]21` (stereo partly drawn) [Example 7, 2-((1R,3s,5S,6r)-3-((6-fluoroquinolin-4-yl)oxy)bicyclo[3.1.0]hexan-6-yl)-N-(3-(hydroxy-methyl)bicyclo[1.1.1]pentan-1-yl)propanamide] registered an IC50 of 468 nM.
In turn, `CC(C(=O)NCC(F)(F)F)[C@H]1[C@@H]2C[C@@H](n3cnc4cc(F)c(F)cc43)C[C@@H]21` (stereo partly drawn) [Example 44, 2-((1R,3s,5S,6r)-3-(5,6-difluoro-1H-benzo[d]-imidazol-1-yl)bicyclo-[3.1.0]hexan-6-yl)-N-(2,2,2-trifluoroethyl)-propanamide] gave an IC50 of 6760 nM.
Under `CC(C(=O)NC12CC(CC#N)(C1)C2)[C@H]1[C@@H]2C[C@@H](Oc3ccnc4ccc(F)cc34)C[C@@H]21` (stereo partly drawn) [Example 8, N-(3-(cyanomethyl)bicyclo[1.1.1]pentan-1-yl)-2-((1R,3s,5S,6r)-3-((6-fluoroquinolin-4-yl)-oxy)bicyclo[3.1.0]hexan-6-yl)propanamide] stands 51.3 nM; under `CC(C(=O)Nc1ccn(CC(F)(F)F)n1)[C@H]1[C@@H]2C[C@@H](Oc3ccnc4ccc(F)cc34)C[C@@H]21` (stereo partly drawn) [Example 105, 2-((1R,3s,5S,6r)-3-((6-fluoroquinolin-4-yl)oxy)-bicyclo[3.1.0]hexan-6-yl)-N-(1-(2,2,2-trifluoroethyl)-1H-pyrazol-3-yl)-propanamide], 17.9 nM.
For `CC(C(=O)Nc1ccc(Cl)cc1)[C@H]1[C@@H]2C[C@@H](n3cnc4ccc(C#N)cc43)C[C@@H]21` (stereo partly drawn) [Example 16, N-(4-chlorophenyl)-2-((1R,3s,5S,6r)-3-(6-cyano-1H-benzo[d]imidazol-1-yl)-bicyclo[3.1.0]hexan-6-yl)-propanamide], the IC50 was determined as 4.4 nM.

A word on the IC50: it is the concentration that gives 50% inhibition. High values mean a need for much substance, low ones inhibition by little substance.
